Assays:
Format in all cases: physicochemical
[1] = Example 6: 1-MCP headspace release from PSA labels; settings: 2.5 cm x 2.5 cm PSA label, 250 mL bottle; for Headspace concentration of 1-MCP, average: 50 μL water
Procedure: A 100 mL quartz beaker was charged with 54 g of 2-isooctyl acrylate, 6 g of acrylic acid, and 0.60 g of 1-hydroxycyclohexyl phenyl ketone (IRGACURE® 184, Ciba Specialty Chemicals Corp. of Tarrytown, N.Y.). The beaker was equipped with a mechanical stirrer, and the contents were mixed for about 5 minutes while sparging with dry helium. Then the beaker was irradiated with a medium pressure mercury arc lamp operating at 79 watts per cm situated about 15 cm from the side of the beaker. The light was turned off when the contents of the flask were of a honey-like consistency, about 1.5 minutes. The beaker was further charged with 3.23 g of 1-MCP/c/α-CD, 0.89 g of IRGACURE® 184, 5.8 g of isooctyl acrylate, and 0.72 g of acrylic acid. The beaker contents were mixed until uniformly dispersed, about 5 minutes.
About 4 mL of the mixture in the bottle was removed with a metered dropper and dispensed on 30.5 cm by 30.5 cm white paper labelstock, and drawn down using a metering rod (Meyer coating rod #30) having a delivered coating thickness of 25 microns. Then a 21.5 cm by 28 cm silicone coated polyester (PET) film sheet (120 μm thick (obtained from the 3M Company of St. Paul, Minn.) was placed over the coated labelstock, taking care not to entrain air bubbles. The coated and covered labelstock was cut into 10 cm by 20 cm rectangles using a paper cutter. The cut samples were passed by hand about 15 cm beneath a medium pressure mercury arc lamp operating at 79 watts per cm; multiple hand passes beneath the UV light or about 30 seconds under the lamp was used to cure the adhesive. The cured coated labelstock sheets were allowed to sit PET side up on a laboratory bench overnight.
A paper cutter was used to cut six replicate 2.5 cm by 2.5 cm squares from the sheets. Because the UV cured coating composition is a pressure sensitive adhesive, or PSA, the 2.5 cm by 2.5 cm squares are termed “PSA labels.” Each PSA label, with the silicone coated PET still in place, was placed in a 250 mL serum bottle. Each bottle was sealed with a TEFLON® faced silicone septum. The headspace concentration of 1-MCP was measured after 1 hour following introduction of the PSA label into a bottle, using the technique of Example 3 except that 250 μL of gas was removed from the sample bottle for the analysis. 1-MCP was below the quantification limit of 0.01 ppm.
Then 50 μL of deionized water was injected into each bottle. […] The sealed bottle headspace was analyzed at 10 minutes, 30 minutes, and 60 minutes, using the technique of Example 3. A final headspace sample was analyzed 16 hours after the injection of water. The data illustrate that 1-MCP was released from a PSA label into the headspace when exposed to water vapor (humidity) and that its concentration increases over time.

[2] = Example 4: 1-MCP headspace release versus coated surface area and time; settings: 4.0 wt-% 1-MCP/c/α-CD coating, 20 μL water
Procedure: A 4.0 wt-% 1-MCP/c/α-CD blend was made according to the technique of Example 3. A rubber ink roller was used to deliver a coating having a nominal thickness of 0.3 μm to a 20 cm by 20 cm polyethylene extrusion coated paper sheet using the technique of Example 2. The coated sheet was cured according to the procedure of Example 2.
Using a razor blade, 26 cm^2, 52 cm^2, and 78 cm^2 samples were cut from the coated portion of the sheet. Each sample was placed in a 250 mL serum bottle. The bottles were sealed with TEFLON® faced silicone septa. Then 20 μL of deionized water was injected into each bottle. […] Bottle headspace analysis was conducted according to the technique of Example 3 at 0.17 hours, 0.5 hours, 1 hour, 2 hours, 4 hours and 24 hours after the injection of water.

[3] = Example 9: 1-MCP headspace release from UV-cured ink coated on PET film; settings: 4 wt-% 1-MCP/c/α-CD UV ink on PET, 200 μL water
Procedure: ImTech UVBLK Series 912 cartridges were obtained from ImTech Inc. of Corvallis, Oreg. About 40 g of black ink was removed from the cartridge in which the ink was supplied. The ink was dried overnight in a closed container with 3 A molecular sieves to remove residual water contained in the ink. Then 17.5 g of the dried ink was transferred to a 70 mL roller mill jar filled with 50 g of 3 mm glass beads to which 0.875 g of 1-MCP/c/α-CD was added to the UV ink. The jar was sealed and rotated on a roller mill at 140 rpm for four hours. At the end of four hours of rolling to disperse the 1-MCP/c/α-CD, an additional 4.375 g of dry UV ink was added making a 4 wt-% 1-MCP/c/α-CD containing ink. Then the ink was decanted from the glass beads.
A rubber ink roller was used to coat a discontinuous, thin (nominally 3 μm), but uniform UV ink coating onto a 10 cm by 20 cm section of PET film (120 microns thick, obtained from the 3M Company of St. Paul, Minn.) in the manner described in Example 2. UV ink coated rectangles were passed by hand about 10 cm beneath a medium pressure mercury arc lamp operating at 79 watts per cm for 1.5 seconds exposure to the lamp. The cured sample was allowed to sit on a laboratory bench overnight ink side down.
A paper cutter was used to cut two samples, 20 cm^2 and 81 cm^2, from the cured ink coated PET film sheet. The samples were individually placed in 250 mL serum bottles. The bottles were then sealed with TEFLON® faced silicone septa. Then 200 μL of deionized water was injected into the bottle. […] After the injection of water into the bottle, 1-MCP was measured in the headspace using the analytical technique employed in Example 3.

CC1=CC1 [1-MCP, 1-methylcyclopropene]
Headspace concentration of 1-MCP, average ([1]; 0.17 hours): 0.01 ppm (v/v) | Headspace concentration of 1-MCP, average ([1]; 0.5 hours): 1.3 ppm (v/v) | Headspace concentration of 1-MCP, average ([1]; 1 hour): 3.6 ppm (v/v) | Headspace concentration of 1-MCP, average ([1]; 16 hours): 29.7 ppm (v/v) | Headspace concentration of 1-MCP ([1]; no water, 1 hour, quantification limit): < 0.01 ppm | Headspace concentration of 1-MCP ([2]; 26 cm^2, 250 mL bottle, 0.17 hrs): 0.25 ppm -v/v | Headspace concentration of 1-MCP ([2]; 26 cm^2, 250 mL bottle, 0.5 hrs): 1.5 ppm -v/v | Headspace concentration of 1-MCP ([2]; 26 cm^2, 250 mL bottle, 1 hr): 2.4 ppm -v/v | Headspace concentration of 1-MCP ([2]; 26 cm^2, 250 mL bottle, 2 hrs): 3.7 ppm -v/v | Headspace concentration of 1-MCP ([2]; 26 cm^2, 250 mL bottle, 4 hrs): 5.8 ppm -v/v | Headspace concentration of 1-MCP ([2]; 26 cm^2, 250 mL bottle, 24 hrs): 9.6 ppm -v/v | Headspace concentration of 1-MCP ([2]; 52 cm^2, 250 mL bottle, 0.17 hrs): 0.66 ppm - v/v | Headspace concentration of 1-MCP ([2]; 52 cm^2, 250 mL bottle, 0.5 hrs): 2.2 ppm - v/v | Headspace concentration of 1-MCP ([2]; 52 cm^2, 250 mL bottle, 1 hr): 4.2 ppm - v/v | Headspace concentration of 1-MCP ([2]; 52 cm^2, 250 mL bottle, 2 hrs): 7.0 ppm - v/v | Headspace concentration of 1-MCP ([2]; 52 cm^2, 250 mL bottle, 4 hrs): 9.9 ppm - v/v | Headspace concentration of 1-MCP ([2]; 52 cm^2, 250 mL bottle, 24 hrs): 16.1 ppm - v/v | Headspace concentration of 1-MCP ([2]; 78 cm^2, 250 mL bottle, 0.17 hrs): 1.7 ppm - v/v | Headspace concentration of 1-MCP ([2]; 78 cm^2, 250 mL bottle, 0.5 hrs): 3.4 ppm - v/v | Headspace concentration of 1-MCP ([2]; 78 cm^2, 250 mL bottle, 1 hr): 5.2 ppm - v/v | Headspace concentration of 1-MCP ([2]; 78 cm^2, 250 mL bottle, 2 hrs): 7.9 ppm - v/v | Headspace concentration of 1-MCP ([2]; 78 cm^2, 250 mL bottle, 4 hrs): 12.4 ppm - v/v | Headspace concentration of 1-MCP ([2]; 78 cm^2, 250 mL bottle, 24 hrs): 20.0 ppm - v/v | Headspace concentration of 1-MCP ([3]; 20 cm^2, 250 mL bottle, 0.5 hours): <0.01 ppm (v/v) | Headspace concentration of 1-MCP ([3]; 20 cm^2, 250 mL bottle, 1 hour): <0.01 ppm (v/v) | Headspace concentration of 1-MCP ([3]; 20 cm^2, 250 mL bottle, 2 hours): 0.01 ppm (v/v) | Headspace concentration of 1-MCP ([3]; 20 cm^2, 250 mL bottle, 4 hours): 0.04 ppm (v/v) | Headspace concentration of 1-MCP ([3]; 20 cm^2, 250 mL bottle, 8 hours): 0.05 ppm (v/v) | Headspace concentration of 1-MCP ([3]; 20 cm^2, 250 mL bottle, 27 hours): 0.09 ppm (v/v) | Headspace concentration of 1-MCP ([3]; 20 cm^2, 250 mL bottle, 170 hours): 0.76 ppm (v/v) | Headspace concentration of 1-MCP ([3]; 81 cm^2, 250 mL bottle, 0.5 hours): <0.01 ppm (v/v) | Headspace concentration of 1-MCP ([3]; 81 cm^2, 250 mL bottle, 1 hour): 0.05 ppm (v/v) | Headspace concentration of 1-MCP ([3]; 81 cm^2, 250 mL bottle, 2 hours): 0.18 ppm (v/v) | Headspace concentration of 1-MCP ([3]; 81 cm^2, 250 mL bottle, 21 hours): 0.51 ppm (v/v) | Headspace concentration of 1-MCP ([3]; 81 cm^2, 250 mL bottle, 48 hours): 0.60 ppm (v/v)
